pIC50: −log10 of the molar value. Where two headings read alike, the source gives them in different places.

Assay [1] has as its system MCF7-R (mammary carcinoma cells 250-fold resistant to paclitaxel). As to the kind of experiment: Tumor growth inhibitory activity (cytotoxicity), SRB method of Skehan et al, MCF7-R. In kind it is cell-based, human. As to conditions: for pIC50: read-out: IC50 MCF7-R (breast); for R/S (resistance factor): ratio of cytotoxicity against drug-resistant MCF7-R (R) to drug-sensitive MCF7 (S). The source says:
(§1) The results were obtained according to the methods of Skehan et al (See Skehan et al., J. Nat. Cancer Inst., 82, 1107 (1990)), as more fully described in the Examples. The resistance factor (R/S) shown in the table is a measure of the degree of resistance of a cell line against a taxoid compound. The resistance factor is a ratio of the cytoxicity of a taxoid compound against a drug-resistant cell line (R) as compared to its cytoxicity against a drug-sensitive cell line (S).
(§2) In the tables, lower numbers indicate higher potency (or greater activity). Paclitaxel was used as the standard for comparison. The data represent the mean values of at least three separate experiments.
(§3) Assessment of cell growth inhibition was determined according to the methods of Skehan et al (See Skehan et al., J. Nat. Cancer Inst., 82, 1107 (1990)). Briefly, cells were plated between 400 and 1200 cells/well in 96 well plates and incubated at 37° C. for 15-18 h prior to drug addition to allow attachment of cells. Compounds tested were solubilized in 100% DMSO and further diluted in RPMI-1640 containing 10 mM HEPES. Each cell line was treated with 10 concentrations of compounds (5 log range). After a 72 h incubation, 100 μL of ice-cold 50% TCA was added to each well and incubated for 1 h at 4° C. Plates were then washed 5 times with tap water to remove TCA, low-molecular-weight metabolites and serum proteins. Sulforhodamine B (SRB) (0.4%, 50 μL) was added to each well. Following a 5 minute incubation at room temperature, plates were rinsed 5 times with 0.1% acetic acid and air dried. Bound dye was solubilized with 10 mM Tris Base (pH 10.5) for 5 min on a gyratory shaker. Optical density was measured at 570 nm.
(§4) Data were fit with the Sigmoid-Emax concentration-effect model with non-linear regression, weighted by the reciprocal of the square of the predicted response (see Holford, N. H. G.; Scheiner, L. B., “Understanding the dose-effect relationship: Clinical applications of pharmaco-kinetic-pharmacodynamic models,” Clin. Pharmacokin., 6, 429-453 (1981)). The fitting software was developed by the Roswell Park Cancer Institute with Microsoft FORTRAN, and uses the Marquardt algorithm (see Marquardt, D. W., “An algorithm for least squares estimation of nonlinear parameters,” J. Soc. Ind. Appl. Math., 11, 431-441 (1963)) as adopted by Nash for the non-linear regression (see Nash, J. C., “Compact numerical method for computers: Linear algebra and function minimization,” John Wiley & Sons, New York, 1979).
A general note: Sulforhodamine B stains cellular protein and so reports cell mass.

Another assay has as its system MCF7 (mammary carcinoma). As to the kind of experiment: Tumor growth inhibitory activity (cytotoxicity), SRB method of Skehan et al, MCF7. As to conditions: read-out: IC50 MCF7 (breast). In kind it is cell-based, human.
Excerpt: as §1, §2, §3, §4

The mark [2] stands for this setting: Homo sapiens, MCF7R, drug-resistant cell line, 72 h drug exposure, SRB, mean of at least three separate experiments.
Setting [3] is: Homo sapiens, MCF7, 72 h drug exposure, SRB, mean of at least three separate experiments.
[4] abbreviates: drug-resistant cell line, 72 h drug exposure, SRB, mean of at least three separate experiments.
[5] abbreviates: 72 h drug exposure, SRB, mean of at least three separate experiments.

For `CCC(=O)O[C@H]1C(=O)[C@@]2(C)C([C@H](OC(=O)c3cccc(N=[N+]=[N-])c3)[C@]3(O)C[C@H](OC(=O)[C@H](O)[C@H](C=C(F)F)NC(=O)OC(C)(C)C)C(C)=C1C3(C)C)[C@]1(OC(C)=O)CO[C@@H]1C[C@@H]2O` (stereo partly drawn) [SB-T-12853-3, 3′-Dephenyl-3′-(2,2-difluorovinyl)-2-debenzoyl-2-(3-azidobenzoyl)-10-propanoyldocetaxel], the results for the pIC50 (in assay [1] (setting [2]); with MCF7 (mammary carcinoma) (setting [3])) were 9.42 and 9.89, respectively. For the same compound, in assay [1], the “R/S (resistance factor)” value worked out at 2.9.
The corresponding values for `CCC(=O)O[C@H]1C(=O)[C@@]2(C)C([C@H](OC(=O)c3cccc(F)c3)[C@]3(O)C[C@H](OC(=O)[C@H](O)[C@H](C=C(F)F)NC(=O)OC(C)(C)C)C(C)=C1C3(C)C)[C@]1(OC(C)=O)CO[C@@H]1C[C@@H]2O` (stereo partly drawn) [SB-T-12853-2, 3′-Dephenyl-3′-(2,2-difluorovinyl)-2-debenzoyl-2-(3-fluorobenzoyl)-10-propanoyldocetaxel] are 8.60, 9.64 and 11.
Taken in the same sequence, the figures for `COc1cccc(C(=O)O[C@H]2C3[C@](C)(C(=O)[C@H](OC(C)=O)C4=C(C)[C@@H](OC(=O)[C@H](O)[C@H](C=C(F)F)NC(=O)OC(C)(C)C)C[C@]2(O)C4(C)C)[C@@H](O)C[C@H]2OC[C@@]32OC(C)=O)c1` (stereo partly drawn) [SB-T-12851-1, 3′-Dephenyl-3′-(2,2-difluorovinyl)-2-debenzoyl-2-(3-methoxybenzoyl)-10-acetyldocetaxel] were 8.82, 9.60 and 6.0.
With `CC(=O)O[C@@]12CO[C@@H]1C[C@H](O)[C@@]1(C)C(=O)[C@H](OC(=O)C3CC3)C3=C(C)[C@@H](OC(=O)[C@H](O)[C@H](C=C(F)F)NC(=O)OC(C)(C)C)C[C@@](O)([C@@H](OC(=O)c4ccccc4)[C@H]21)C3(C)C` [SB-T-12852, 3′-dephenyl-3′-(2,2-difluorovinyl)-10-cyclopropanecarbonyl-docetaxel], the negative-log IC50 (pIC50) in assay [1] (setting [4]) was 8.22; in the assay on MCF7 (mammary carcinoma) (setting [5]) it was 9.92. For the same compound, the “R/S (resistance factor)” value in assay [1] is 53.
As to `CC(=O)OC12COC1CC(O)C1(C)C(=O)C(OC(=O)C3CC3)C3=C(C)C(OC(=O)C(O)C(C=C(F)F)NC(=O)OC(C)(C)C)CC(O)(C(OC(=O)c4cccc(Cl)c4)C21)C3(C)C` (stereo not drawn) [SB-T-12852-4, 3′-Dephenyl-3′-(2,2-difluorovinyl)-2-debenzoyl-2-(3-chlorobenzoyl)-10-cyclopropanecarbonyldocetaxel], the negative-log IC50 (pIC50) was 9.30 in assay [1] (setting [4]) and 9.92 with MCF7 (mammary carcinoma) (setting [5]). In assay [1], the “R/S (resistance factor)” value is on record as 4.2.
For the compound `COC(=O)O[C@H]1C(=O)[C@@]2(C)C([C@H](OC(=O)c3cccc(Cl)c3)[C@]3(O)C[C@H](OC(=O)[C@H](O)[C@H](C=C(F)F)NC(=O)OC(C)(C)C)C(C)=C1C3(C)C)[C@]1(OC(C)=O)CO[C@@H]1C[C@@H]2O` (stereo partly drawn) [SB-T-12855-4, 3′-Dephenyl-3′-(2,2-difluorovinyl)-2-debenzoyl-2-(3-chlorobenzoyl)-10-methoxycarbonyldocetaxel], the negative-log IC50 (pIC50) was 8.94 in assay [1] (setting [2]) and 10.00 in the assay with MCF7 (mammary carcinoma) (setting [3]). Also, in assay [1], the “R/S (resistance factor)” value is given as 12.
As for `CC(=O)O[C@H]1C(=O)[C@@]2(C)C([C@H](OC(=O)c3cccc(N=[N+]=[N-])c3)[C@]3(O)C[C@H](OC(=O)[C@H](O)[C@H](C=C(F)F)NC(=O)OC(C)(C)C)C(C)=C1C3(C)C)[C@]1(OC(C)=O)CO[C@@H]1C[C@@H]2O` (stereo partly drawn) [SB-T-12851-3, 3′-Dephenyl-3′-(2,2-difluorovinyl)-2-debenzoyl-2-(3-azidobenzoyl)-10-acetyldocetaxel], the pIC50 was 9.47 in assay [1] (setting [2]) and 10.04 with MCF7 (mammary carcinoma) (setting [3]). In addition, in assay [1], the “R/S (resistance factor)” value amounted to 3.7.
For the compound `CC(=O)O[C@H]1C(=O)[C@@]2(C)C([C@H](OC(=O)c3cccc(F)c3)[C@]3(O)C[C@H](OC(=O)[C@H](O)[C@H](C=C(F)F)NC(=O)OC(C)(C)C)C(C)=C1C3(C)C)[C@]1(OC(C)=O)CO[C@@H]1C[C@@H]2O` (stereo partly drawn) [SB-T-12851-2, 3′-Dephenyl-3′-(2,2-difluorovinyl)-2-debenzoyl-2-(3-fluorobenzoyl)-10-acetyldocetaxel], the pIC50 in assay [1] (setting [2]) was 8.82; with MCF7 (mammary carcinoma) (setting [3]), 9.89. For the same compound, in assay [1], the “R/S (resistance factor)” value is reported as 12.
As for `CCC(=O)O[C@H]1C(=O)[C@@]2(C)C([C@H](OC(=O)c3cccc(OC)c3)[C@]3(O)C[C@H](OC(=O)[C@H](O)[C@H](C=C(F)F)NC(=O)OC(C)(C)C)C(C)=C1C3(C)C)[C@]1(OC(C)=O)CO[C@@H]1C[C@@H]2O` (stereo partly drawn) [SB-T-12853-1, 3′-Dephenyl-3′-(2,2-difluorovinyl)-2-debenzoyl-2-(3-methoxybenzoyl)-10-propanoyldocetaxel], the pIC50 is 9.24 in assay [1] (setting [2]) and 9.47 with MCF7 (mammary carcinoma) (setting [3]). Further, the “R/S (resistance factor)” value in assay [1] amounted to 1.7.
For `CC(=O)O[C@H]1C(=O)[C@@]2(C)[C@H]([C@H](OC(=O)c3ccccc3)[C@]3(O)C[C@H](OC(=O)[C@H](O)[C@@H](NC(=O)c4ccccc4)c4ccccc4)C(C)=C1C3(C)C)[C@]1(OC(C)=O)CO[C@@H]1C[C@@H]2O` [Paclitaxel, paclitaxel, reference compound], the pIC50 in assay [1] (setting [2]) was 6.52; in the assay with MCF7 (mammary carcinoma) (setting [3]), 8.92. In addition, in assay [1], the “R/S (resistance factor)” value is recorded as 250.
Taken in the same sequence, the figures for `COC(=O)O[C@H]1C(=O)[C@@]2(C)C([C@H](OC(=O)c3cccc(OC)c3)[C@]3(O)C[C@H](OC(=O)[C@H](O)[C@H](C=C(F)F)NC(=O)OC(C)(C)C)C(C)=C1C3(C)C)[C@]1(OC(C)=O)CO[C@@H]1C[C@@H]2O` (stereo partly drawn) [SB-T-12855-1, 3′-Dephenyl-3′-(2,2-difluorovinyl)-2-debenzoyl-2-(3-methoxybenzoyl)-10-methoxycarbonyldocetaxel] were 9.30, 10.11 and 6.4.
`CC(=O)O[C@@]12CO[C@@H]1C[C@H](O)[C@@]1(C)C(=O)[C@H](OC(=O)N(C)C)C3=C(C)[C@@H](OC(=O)[C@H](O)[C@H](C=C(F)F)NC(=O)OC(C)(C)C)C[C@@](O)([C@@H](OC(=O)c4cccc(F)c4)C12)C3(C)C` (stereo partly drawn) [SB-T-12854-2, 3′-Dephenyl-3′-(2,2-difluorovinyl)-2-debenzoyl-2-(3-fluorobenzoyl)-10-dimethylcarbamoyldocetaxel]: the pIC50 is 8.65 in assay [1] (Homo sapiens, MCF7R, 72 h) and 9.77 with MCF7 (mammary carcinoma) (Homo sapiens, MCF7, 72 h). Further, in assay [1], the “R/S (resistance factor)” value was found to be 9.4.
With `COC(=O)O[C@H]1C(=O)[C@@]2(C)C([C@H](OC(=O)c3cccc(N=[N+]=[N-])c3)[C@]3(O)C[C@H](OC(=O)[C@H](O)[C@H](C=C(F)F)NC(=O)OC(C)(C)C)C(C)=C1C3(C)C)[C@]1(OC(C)=O)CO[C@@H]1C[C@@H]2O` (stereo partly drawn) [SB-T-12855-3, 3′-Dephenyl-3′-(2,2-difluorovinyl)-2-debenzoyl-2-(3-azidobenzoyl)-10-methoxycarbonyldocetaxel], the pIC50 in assay [1] (setting [2]) was 9.40; in the assay with MCF7 (mammary carcinoma) (setting [3]) it was 10.12. Also, the “R/S (resistance factor)” value in assay [1] came out at 5.3.
As for `CC(=O)O[C@@]12CO[C@@H]1C[C@H](O)[C@@]1(C)C(=O)[C@H](OC(=O)N(C)C)C3=C(C)[C@@H](OC(=O)[C@H](O)[C@H](C=C(F)F)NC(=O)OC(C)(C)C)C[C@@](O)([C@@H](OC(=O)c4cccc(N=[N+]=[N-])c4)C12)C3(C)C` (stereo partly drawn) [SB-T-12854-3, 3′-Dephenyl-3′-(2,2-difluorovinyl)-2-debenzoyl-2-(3-azidobenzoyl)-10-dimethylcarbamoyldocetaxel], the pIC50 in assay [1] (Homo sapiens, MCF7R, 72 h) is 9.35; in the assay with MCF7 (mammary carcinoma) (Homo sapiens, MCF7, 72 h), 9.89. Moreover, the “R/S (resistance factor)” value in assay [1] is given as 3.7.
Regarding `COc1cccc(C(=O)O[C@H]2C3[C@](C)(C(=O)[C@H](OC(=O)N(C)C)C4=C(C)[C@@H](OC(=O)[C@H](O)[C@H](C=C(F)F)NC(=O)OC(C)(C)C)C[C@]2(O)C4(C)C)[C@@H](O)C[C@H]2OC[C@@]32OC(C)=O)c1` (stereo partly drawn) [SB-T-12854-1, 3′-dephenyl-3′-(2,2-difluorovinyl)-2-debenzoyl-2-(3-methoxybenzoyl)-10-dimethylcarbamate-docetaxel], the pIC50 in assay [1] (Homo sapiens, MCF7R, 72 h) was 9.02; in the assay on MCF7 (mammary carcinoma) (Homo sapiens, MCF7, 72 h) it was 9.96. Also, the “R/S (resistance factor)” value in assay [1] amounted to 8.7.

What is called pIC50 is the negative decadic logarithm of the IC50, by convention in mol/L.

The record behind these values is US7981926B2, “Fluorotaxoids” (Research Foundation of State University of New York, priority 2005, dated 2011).
